# Reference: patent publication US11186617B2, “Epitope” (HOYU CO., LTD., priority 2017, dated 2021)
# How the values were obtained:
# [1] = test system: IgE antibody in the serum from a WDEIA patient; experiment: Epitope mapping (1): peptide array, chemiluminescent measurement of IgE binding using human serum; details: 15-amino-acid peptides on array; 2% serum; sera from WDEIA patients 1 to 3 vs healthy individuals 1 and 2; FIG. 1
# Experimental: Epitope mapping was performed by using a library of overlapping peptides (15 amino acids in length) corresponding to the full-length amino acid sequence of ω-5 gliadin from bread wheat (SEQ ID NO: 51).
# Each synthesized peptide was shifted by 10 amino acids. In other words, each peptide overlaps with the previous peptide and the next peptide, each by 5 amino acids.
# Intavis CelluSpots™ technique was used for preparing a peptide array. Specifically, the peptide array was prepared by the following procedures: (1) synthesizing a target peptide on an amino-modified cellulose disk by using an automated synthesizer (MultiPep RS from Intavis), (2) dissolving said amino-modified cellulose disk to obtain a solution of a peptide bound to cellulose, and (3) spotting said peptide bound to cellulose on a coated slide glass. The detail of each procedure is as follows.
# Said peptide array was used to measure whether each peptide fragment is bound by an IgE antibody in the serum from a WDEIA patient due to an antigen-antibody reaction, or not. This measurement was performed in accordance with the following procedures. […]
# (7) Chemiluminescence of the peptide that was treated as described in the above (1) to (6) was measured by using Amersham Imager 600.
# [2] = test system: IgE antibody from the patient; experiment: Epitope mapping (3): alanine scanning ELISA, patient serum; type: binding, human; details: alanine-substituted peptides; serum from patient 1; FIG. 3
# Experimental: (§1) The amino acid sequence of SEQ ID NO: 22 and the amino acid sequence of SEQ ID NO: 29 identified in the above-mentioned (B) were subjected to a technique referred to as alanine scanning (Non Patent Literature 1). Specifically, a library of peptide fragments was prepared by a technique similar to that described above in (B), in which the peptide fragments were produced by substituting one amino acid at a time with alanine in each amino acid sequence of […], starting from the amino acid at an amino terminal side. Then, a technique similar to that described above in (B) was used to measure whether each peptide fragment was bound by the IgE antibody in the serum from a patient and a healthy subject, or not. When alanine substitution of an amino acid at a certain position led to loss or reduction of binding activity to the IgE antibody from the patient and development of binding activity to the IgE antibody from the healthy subject, the amino acid was determined to be an amino acid important for expression of inherent antigenicity or an amino acid affecting expression of inherent antigenicity. […] A common sequence important for expression of inherent antigenicity was discovered by this analysis.
# (§2) The result of alanine scanning performed on the amino acid sequence of SEQ ID NO: 22 and the result of alanine scanning performed on the amino acid sequence of SEQ ID NO: 29 are shown in FIG. 3, respectively.
# [3] = test system: anti-human IgE antibody as a secondary antibody; experiment: Epitope mapping (3): alanine scanning ELISA, secondary antibody used alone; type: binding; details: alanine-substituted peptides, FIG. 3
# From the text: FIG. 3 is a diagram showing the result of investigation of positions important for exerting antigenicity in SEQ ID NOs: 22 and 29 by an alanine scanning technique. The number on the horizontal axis denotes a value of coloration intensity at 450 nm measured by an absorption spectrometer (Abs.). In this figure, a double wavy line denotes that a value is not shown, P1 denotes that the serum from patient 1 was used, N1 and N2 denote that the sera from healthy individuals 1 and 2 were used, and 2nd denotes that an anti-human IgE antibody as a secondary antibody was used alone.
# as §1, §2
# [4] = test system: IgE antibody from the healthy subject; experiment: Epitope mapping (3): alanine scanning ELISA, healthy subject serum; type: binding, human; details: alanine-substituted peptides; sera from healthy individuals 1 and 2; FIG. 3
# Experimental: as §1, §2
Substance,binding of IgE antibody to peptide spot (chemiluminescence) [1],binding activity to the IgE antibody from the patient (absorbance at 450 nm) [2],binding activity to the anti-human IgE antibody as the secondary antibody (absorbance at 450 nm) [3],binding activity to the IgE antibody from the healthy subject (absorbance at 450 nm) [4]
SEQ ID NO: 6: peptide of amino acids 221 to 235 of the full-length ω-5 gliadin from bread wheat (SEQ ID NO: 51) (QQFPQQEFPQQQQFP; epitope),"bound, in a manner specific to a patient",,,
SEQ ID NO: 13: peptide of amino acids 161 to 175 of the full-length ω-5 gliadin from bread wheat (SEQ ID NO: 51) (PQQQPPQQHQFPQQQ; epitope),"bound, in a manner specific to a patient",,,
SEQ ID NO: 32: amino acid at position 5 in SEQ ID NO: 22 substituted with alanine (QQFPQQEFPAQQQFP; modified epitope),,reduced binding activity,did not develop binding activity,did not develop binding activity
SEQ ID NO: 35: amino acid at position 1 in SEQ ID NO: 22 substituted with alanine (QQFPQAEFPQQQQFP; modified epitope),,slightly reduced binding activity,developed a relatively low level of binding activity,developed a relatively low level of binding activity
